From patent publication US11419856B2, “Pharmaceutical combinations for use in the treatment of neoplastic diseases” (Basilea Pharmaceutica International AG, priority 2017, dated 2022)

Assays:
[1] = Pharmacokinetic profile in mouse plasma (LC-MS/MS), single agents vs combination; format: in vivo; conditions: non-tumor bearing mice; BAL101553 daily, eribulin every two days to steady state; 10 minutes to 24 hours; FIG. 6
Experimental: Female NCI Ath/nu non-tumor bearing mice were treated either with BAL101553, eribulin or with a combination of BAL101553 and eribulin where eribulin was administered 30 minutes before BAL101553. Control animals received vehicle control. The mice were dosed until steady state was reached (BAL101553 was dosed daily and eribulin was dosed once every two days, the doses used for the combination-treatment matched those used in the monotherapy). Blood was taken from every animal according to a determined schedule covering a time window of 10 minutes to 24 hours, processed for plasma and subsequently analyzed by LC-MS/MS for the determination of BAL27862 (parent drug of BAL101553) and eribulin concentrations (ng/ml plasma). Data points represent mean values of ng/ml plasma concentration+/−SEM (n=3 animals).
The in vivo combination of BAL101553 with eribulin in the TNBC xenograft model MDA-MB-231 led to a higher proportion of cures or tumor free animals than observed in the single agent treatment groups. […] The mice were either treated with BAL101553, eribulin or the combination thereof, and plasma concentrations of BAL27862 and eribulin at various time points were determined (FIG. 6).

A549 = assay: Soft agar assay, IC50 of single agents in A549; format: cell-based; conditions: Homo sapiens
Experimental: Example 5: Determination of Drug Interaction in Cell Lines by Soft Agar Assay
The combination of BAL101553 with eribulin was tested in various cell lines by soft agar assay. Table 1 and Table 2 present the results according to coefficient of drug interaction based on colony number (Table 1) and total area of colonies (Table 2). In both cases the coefficient of drug interaction is calculated according to the formula described in Zhao et al., J Intercult Ethnopharmacol. 2014, 3(2): 68-72): (combination/untreated)/[(compound1/untreated)×(compound2/untreated)]

NCI-H460-GFP cells = assay: Apoptosis assay (EGFP/FACS) in NCI-H460-GFP cells; format: cell-based; conditions: Homo sapiens, data not shown, read-out: EC50, induction of apoptosis
Experimental: The following human cell line was used: MDA-MB-231 (ATCC: HTB-26). In addition the following enhanced green fluorescent protein (EGFP)-transfected human cell lines were used: NCI-H460 (ATCC: HTB-177) (H460GFP) and Jurkat (ATCC: TIB-152) (JurkatGFP). NCI-H460 and Jurkat cell lines were cultured in RPMI-1640 tissue culture medium containing 10% (v/v) fetal calf serum, 2 mM glutamine, non-essential amino acids and 50 μg/ml penicillin/streptomycin (Complete medium) (Sigma, Buchs, Switzerland). […]
The assays were performed in commercially available sterile 96-well U-bottom or 24-well flat-bottom tissue culture plates (Falcon). […] For time course experiments with Jurkat cells, the 96-well plates were removed shortly at the indicated time from the incubator, shaken in order to suspend the cells and an aliquot of 200 μl cell suspension was then transferred to a 96-well U-bottom plate and measured immediately on a fluorescence-activated cell sorting (FACS)-Canto II with a high through-put sampler (HTS)-module. […]
The quantification of the relative amount of apoptotic cells within a cell population was determined according to the Reference of Strebel et al., Cytometry 2001, 43(2), Green Fluorescent Protein as Novel Tool to Measure Apoptosis and Necrosis). […] As a readout the relative abundance of the cells belonging to M2 (apoptotic population) were expressed.

Row | SMILES | plasma concentrations, single agent vs combination [1] | IC50 (A549) [nM] | EC50 (NCI-H460-GFP cells) [nM]
1 | N#CCCNc1nonc1-c1nc2ccccc2n1CC(=O)c1ccc(N)cc1 [BAL27862, 3-(4-{1-[2-(4-Amino-phenyl)-2-oxo-ethyl]-1H-benzoimidazol-2-yl}-furazan-3-ylamino)-propionitrile] | did not change significantly | 25 | 24
2 | C=C1C[C@@H]2CC[C@@]34C[C@H]5O[C@H]6[C@@H](O3)[C@H]3O[C@H](CC[C@@H]3O[C@H]6[C@H]5O4)CC(=O)C[C@@H]3[C@@H](OC)[C@@H](C[C@H](O)CN)O[C@H]3C[C@H]3O[C@@H](CC[C@@H]1O2)C[C@@H](C)C3=C.CS(=O)(=O)O [Eribulin, (2R, 3R, 3aS, 7R, 8aS, 9S, 10aR, 11S, 12R, 13aR, 13bS, 15S, 18S, 21S, 24S, 26R, 28R, 29aS)-2-[(2S)-3-Amino-2-hydroxypropyl]-3-methoxy-26-methyl-20,27-dimethylidenehexacosahydro-11,15:18,21:24,28-triepoxy-7,9-ethano-12,15-methano-9H,15H-furo[3,2-i]furo[2′,3′:5,6]pyrano[4,3-b][1,4]dioxacyclopentacosin-5(4H)-one methanesulfonate (salt)] | did not change significantly | 0.25 | 1
